Earlier results in patent US20170157075A1, “Edible Compositions and Methods for Promoting Alpha Brain Waves” (priority 2015, published 2017).
Blank lines part the entries; values can stand above or below the compound they belong to.

Experiments:
[1] = 300 mg per day
[2] = 300 mg per day; controlled trial
[3] = 600-900 mg daily; twelve weeks
[4] = not given; remark: listed apart in the source
[5] = daily 20 mg for every 10 pounds of body weight; controlled study
[6] = single 100 mg nighttime dose; placebo-controlled study
[7] = estimated
[8] = not given; remark: listed apart in the source

Structure (SMILES): N[C@@H](Cc1c[nH]c2ccccc12)C(=O)O [L-tryptophan]
therapeutic effect on cluster of mood symptoms versus placebo (6 grams daily for 17 days, three consecutive cycles, 37 patients treated, 34 placebo): significant (p=0.004) therapeutic effect
withdrawals due to drug side effects (6 grams daily, 71 women include placebo group): 1 of 71 women

share of an oral dose that ends up producing serotonin in the body [7]: 70%
Structure (SMILES): N[C@@H](Cc1c[nH]c2ccc(O)cc12)C(=O)O [5-HTP, 5-hydroxytryptophan]
effect in depression [1]: often effective
effect on symptoms of fibromyalgia [2]: effective in reducing many symptoms of fibromyalgia
average weight loss [3]: 11 lbs
share of subjects with migraine attacks reduced in frequency, severity and duration ([4]; 400 mg per day, well-controlled trial): 90%
reduction of migraine headache attacks versus prescription medications ([4]; 600 mg per day, adults, two double blind studies): as effective as prescription medications
response of children with migraines and sleep problems [5]: responded well
effect on duration and depth of sleep [6]: sufficient to improve the duration and depth of sleep
side effects or interactions reported during the studies ([8]; cited 5-HTP studies, 100-900 mg daily): mild gastrointestinal disturbances in some people, mild nausea, heartburn, flatulence, feelings of fullness, and rumbling sensations
effect of high doses on brain dopamine ([8]; high doses, over time (Hinz et al. 2011, 2012)): can lead over time to depletion of brain dopamine
doses with no toxicity reports ([8]; humans, Examine.com summary): ≤ 50 mg/kg bodyweight
